{
  "source": "paper PMC12454493",
  "about": "“Insight on novel sulfamoylphenyl pyrazole derivatives as anticancer carbonic anhydrase inhibitors” (Molecular Diversity, 2024)",
  "key": {"MALME-3M": {"system": "MALME-3M", "experiment": "NCI-60 one-dose SRB screen (Melanoma)", "format": "cell-based", "conditions": "Homo sapiens, single dose 10 µM, 48 h, read-out: Growth inhibition percent (GI %)", "experimental": "(§1) The National Cancer Institute (NCI) Developmental Therapeutic Program (www.dtp.nci.nih.gov) selected the 20 novel synthesized compounds 4a-e, 5a-e, 6a-c, 9a-e, 10 and 11 to test for their anticancer activity at a single dose of 10 µM using SRB assay. […] Supplementary Data S3; Table S1 presents the detailed screening results of the most promising compounds. The preliminary screening’s detailed results for the remaining compounds are elucidated in the (Supplementary Data S3; Table S2).\n(§2) The guidelines of the Drug Evaluation Branch’s protocol at the NCI in Bethesda served as the basis for the in vitro anticancer screening assays. at one dose 10 µM against a panel of 60 cancer cell lines. The human tumor cell lines used belonged to nine panels: leukemia, melanoma, lung, colon, CNS, ovarian, renal, prostate and breast cancers using the sulforhodamine B (SRB) assay in a 48 h drug exposure protocol."}, "MDA-MB-435": {"system": "MDA-MB-435", "experiment": "NCI-60 one-dose SRB screen (Melanoma)", "format": "cell-based", "conditions": "Homo sapiens, single dose 10 µM, 48 h, read-out: Growth inhibition percent (GI %)", "experimental": "as §1, §2"}, "SK-MEL-28": {"system": "SK-MEL-28", "experiment": "NCI-60 one-dose SRB screen (Melanoma)", "format": "cell-based", "conditions": "Homo sapiens, single dose 10 µM, 48 h, read-out: Growth inhibition percent (GI %)", "experimental": "as §1, §2"}, "SK-MEL-2": {"system": "SK-MEL-2", "experiment": "NCI-60 one-dose SRB screen (Melanoma)", "format": "cell-based", "conditions": "Homo sapiens, single dose 10 µM, 48 h, read-out: Growth inhibition percent (GI %)", "experimental": "as §1, §2"}, "SK-MEL-5": {"system": "SK-MEL-5", "experiment": "NCI-60 one-dose SRB screen (Melanoma)", "format": "cell-based", "conditions": "Homo sapiens, single dose 10 µM, 48 h, read-out: Growth inhibition percent (GI %)", "experimental": "as §1, §2"}, "UACC-257": {"system": "UACC-257", "experiment": "NCI-60 one-dose SRB screen (Melanoma)", "format": "cell-based", "conditions": "Homo sapiens, single dose 10 µM, 48 h, read-out: Growth inhibition percent (GI %)", "experimental": "as §1, §2"}, "UACC-62": {"system": "UACC-62", "experiment": "NCI-60 one-dose SRB screen (Melanoma)", "format": "cell-based", "conditions": "Homo sapiens, single dose 10 µM, 48 h, read-out: Growth inhibition percent (GI %)", "experimental": "as §1, §2"}, "IGROV1": {"system": "IGROV1", "experiment": "NCI-60 one-dose SRB screen (Ovarian cancer)", "format": "cell-based", "conditions": "Homo sapiens, IGROV-1, single dose 10 µM, 48 h, read-out: Growth inhibition percent (GI %)", "experimental": "as §1, §2"}, "NCI/ADR-RES": {"system": "NCI/ADR-RES", "experiment": "NCI-60 one-dose SRB screen (Ovarian cancer)", "format": "cell-based", "conditions": "Homo sapiens, single dose 10 µM, 48 h, read-out: Growth inhibition percent (GI %)", "experimental": "as §1, §2"}, "OVCAR-3": {"system": "OVCAR-3", "experiment": "NCI-60 one-dose SRB screen (Ovarian cancer)", "format": "cell-based", "conditions": "Homo sapiens, single dose 10 µM, 48 h, read-out: Growth inhibition percent (GI %)", "experimental": "as §1, §2"}, "OVCAR-4": {"system": "OVCAR-4", "experiment": "NCI-60 one-dose SRB screen (Ovarian cancer)", "format": "cell-based", "conditions": "Homo sapiens, single dose 10 µM, 48 h, read-out: Growth inhibition percent (GI %)", "experimental": "as §1, §2"}, "OVCAR-5": {"system": "OVCAR-5", "experiment": "NCI-60 one-dose SRB screen (Ovarian cancer)", "format": "cell-based", "conditions": "Homo sapiens, single dose 10 µM, 48 h, read-out: Growth inhibition percent (GI %)", "experimental": "as §1, §2"}, "OVCAR-8": {"system": "OVCAR-8", "experiment": "NCI-60 one-dose SRB screen (Ovarian cancer)", "format": "cell-based", "conditions": "Homo sapiens, single dose 10 µM, 48 h, read-out: Growth inhibition percent (GI %)", "experimental": "as §1, §2"}, "SK-OV-3": {"system": "SK-OV-3", "experiment": "NCI-60 one-dose SRB screen (Ovarian cancer)", "format": "cell-based", "conditions": "Homo sapiens, single dose 10 µM, 48 h, read-out: Growth inhibition percent (GI %)", "experimental": "as §1, §2"}, "786-0": {"system": "786-0", "experiment": "NCI-60 one-dose SRB screen (Renal Cancer)", "format": "cell-based", "conditions": "Homo sapiens, single dose 10 µM, 48 h, read-out: Growth inhibition percent (GI %)", "experimental": "as §1, §2"}, "A498": {"system": "A498", "experiment": "NCI-60 one-dose SRB screen (Renal Cancer)", "format": "cell-based", "conditions": "Homo sapiens, single dose 10 µM, 48 h, read-out: Growth inhibition percent (GI %)", "experimental": "as §1, §2"}, "ACHN": {"system": "ACHN", "experiment": "NCI-60 one-dose SRB screen (Renal Cancer)", "format": "cell-based", "conditions": "Homo sapiens, single dose 10 µM, 48 h, read-out: Growth inhibition percent (GI %)", "experimental": "as §1, §2"}, "CAKI-1": {"system": "CAKI-1", "experiment": "NCI-60 one-dose SRB screen (Renal Cancer)", "format": "cell-based", "conditions": "Homo sapiens, single dose 10 µM, 48 h, read-out: Growth inhibition percent (GI %)", "experimental": "as §1, §2"}, "RXF 393": {"system": "RXF 393", "experiment": "NCI-60 one-dose SRB screen (Renal Cancer)", "format": "cell-based", "conditions": "Homo sapiens, single dose 10 µM, 48 h, read-out: Growth inhibition percent (GI %)", "experimental": "as §1, §2"}, "TK-10": {"system": "TK-10", "experiment": "NCI-60 one-dose SRB screen (Renal Cancer)", "format": "cell-based", "conditions": "Homo sapiens, single dose 10 µM, 48 h, read-out: Growth inhibition percent (GI %)", "experimental": "as §1, §2"}, "UO-31": {"system": "UO-31", "experiment": "NCI-60 one-dose SRB screen (Renal Cancer)", "format": "cell-based", "conditions": "Homo sapiens, single dose 10 µM, 48 h, read-out: Growth inhibition percent (GI %)", "experimental": "as §1, §2"}, "DU-145": {"system": "DU-145", "experiment": "NCI-60 one-dose SRB screen (Prostate Cancer)", "format": "cell-based", "conditions": "Homo sapiens, single dose 10 µM, 48 h, read-out: Growth inhibition percent (GI %)", "experimental": "as §1, §2"}, "PC-3": {"system": "PC-3", "experiment": "NCI-60 one-dose SRB screen (Prostate Cancer)", "format": "cell-based", "conditions": "Homo sapiens, single dose 10 µM, 48 h, read-out: Growth inhibition percent (GI %)", "experimental": "as §1, §2"}, "BT-549": {"system": "BT-549", "experiment": "NCI-60 one-dose SRB screen (Breast Cancer)", "format": "cell-based", "conditions": "Homo sapiens, single dose 10 µM, 48 h, read-out: Growth inhibition percent (GI %)", "experimental": "as §1, §2"}, "HS 578T": {"system": "HS 578T", "experiment": "NCI-60 one-dose SRB screen (Breast Cancer)", "format": "cell-based", "conditions": "Homo sapiens, single dose 10 µM, 48 h, read-out: Growth inhibition percent (GI %)", "experimental": "as §1, §2"}, "MCF-7": {"system": "MCF-7", "experiment": "NCI-60 one-dose SRB screen (Breast Cancer)", "format": "cell-based", "conditions": "Homo sapiens, MCF7, single dose 10 µM, 48 h, read-out: Growth inhibition percent (GI %)", "experimental": "as §1, §2"}, "MDA-MB-231/ATCC": {"system": "MDA-MB-231/ATCC", "experiment": "NCI-60 one-dose SRB screen (Breast Cancer)", "format": "cell-based", "conditions": "Homo sapiens, single dose 10 µM, 48 h, read-out: Growth inhibition percent (GI %)", "experimental": "as §1, §2"}, "MDA-MB-468": {"system": "MDA-MB-468", "experiment": "NCI-60 one-dose SRB screen (Breast Cancer)", "format": "cell-based", "conditions": "Homo sapiens, single dose 10 µM, 48 h, read-out: Growth inhibition percent (GI %)", "experimental": "as §1, §2"}, "T-47D": {"system": "T-47D", "experiment": "NCI-60 one-dose SRB screen (Breast Cancer)", "format": "cell-based", "conditions": "Homo sapiens, T47D, single dose 10 µM, 48 h, read-out: Growth inhibition percent (GI %)", "experimental": "as §1, §2"}, "hCA XII": {"target": "hCA XII (Homo sapiens, UniProt O43570)", "sequence (O43570 25-354)": "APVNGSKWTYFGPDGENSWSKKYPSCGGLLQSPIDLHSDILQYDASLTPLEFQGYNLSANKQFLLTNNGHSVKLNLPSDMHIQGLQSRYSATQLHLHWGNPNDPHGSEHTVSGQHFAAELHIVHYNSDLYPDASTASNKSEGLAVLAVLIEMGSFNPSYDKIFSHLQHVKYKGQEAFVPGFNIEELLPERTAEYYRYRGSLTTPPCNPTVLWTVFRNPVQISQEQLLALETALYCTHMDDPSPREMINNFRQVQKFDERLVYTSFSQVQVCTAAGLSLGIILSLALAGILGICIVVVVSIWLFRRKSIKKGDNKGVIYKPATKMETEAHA", "experiment": "CA inhibitory activity, spectrophotometric p-NPA assay", "format": "biochemical", "conditions": "p-NPA substrate, pH 7.5, 25 °C, triplicate; read-out: IC50 (µM) ± SD hCA XII"}},
  "data": [
    {"smiles": "Cc1ccc(-c2nn(-c3ccc(S(N)(=O)=O)cc3)cc2C(=O)OCC(=O)Nc2ccc(S(N)(=O)=O)cc2)cc1", "note": "[Compound 4b, 2-Oxo-2-[(4-sulfamoylphenyl)amino] ethyl 1-(4-sulfamoylphenyl)-3-(p-tolyl)-1H-pyrazole-4-carboxylate]", "values": [
      {"measurement": "inhibition at 10 µM", "setting": "MALME-3M", "result": "< 5", "unit": "%"},
      {"measurement": "inhibition at 10 µM", "setting": "MDA-MB-435", "result": "< 5", "unit": "%"},
      {"measurement": "inhibition at 10 µM", "setting": "SK-MEL-28", "result": "< 5", "unit": "%"},
      {"measurement": "inhibition at 10 µM", "setting": "SK-MEL-2", "result": 8.94, "unit": "%"},
      {"measurement": "inhibition at 10 µM", "setting": "SK-MEL-5", "result": "< 5", "unit": "%"},
      {"measurement": "inhibition at 10 µM", "setting": "UACC-257", "result": 5.42, "unit": "%"},
      {"measurement": "inhibition at 10 µM", "setting": "UACC-62", "result": "< 5", "unit": "%"},
      {"measurement": "inhibition at 10 µM", "setting": "IGROV1", "result": "< 5", "unit": "%"},
      {"measurement": "inhibition at 10 µM", "setting": "NCI/ADR-RES", "result": "< 5", "unit": "%"},
      {"measurement": "inhibition at 10 µM", "setting": "OVCAR-3", "result": "< 5", "unit": "%"},
      {"measurement": "inhibition at 10 µM", "setting": "OVCAR-4", "result": "< 5", "unit": "%"},
      {"measurement": "inhibition at 10 µM", "setting": "OVCAR-5", "result": 5.99, "unit": "%"},
      {"measurement": "inhibition at 10 µM", "setting": "OVCAR-8", "result": "< 5", "unit": "%"},
      {"measurement": "inhibition at 10 µM", "setting": "SK-OV-3", "result": "< 5", "unit": "%"},
      {"measurement": "inhibition at 10 µM", "setting": "786-0", "result": 9.87, "unit": "%"},
      {"measurement": "inhibition at 10 µM", "setting": "A498", "result": "< 5", "unit": "%"},
      {"measurement": "inhibition at 10 µM", "setting": "ACHN", "result": "< 5", "unit": "%"},
      {"measurement": "inhibition at 10 µM", "setting": "CAKI-1", "result": 15.2, "unit": "%"},
      {"measurement": "inhibition at 10 µM", "setting": "RXF 393", "result": "< 5", "unit": "%"},
      {"measurement": "inhibition at 10 µM", "setting": "TK-10", "result": "< 5", "unit": "%"},
      {"measurement": "inhibition at 10 µM", "setting": "UO-31", "result": 14.5, "unit": "%"},
      {"measurement": "inhibition at 10 µM", "setting": "DU-145", "result": "< 5", "unit": "%"},
      {"measurement": "inhibition at 10 µM", "setting": "PC-3", "result": "< 5", "unit": "%"},
      {"measurement": "inhibition at 10 µM", "setting": "BT-549", "result": 6.7, "unit": "%"},
      {"measurement": "inhibition at 10 µM", "setting": "HS 578T", "result": 6.42, "unit": "%"},
      {"measurement": "inhibition at 10 µM", "setting": "MCF-7", "result": "< 5", "unit": "%"},
      {"measurement": "inhibition at 10 µM", "setting": "MDA-MB-231/ATCC", "result": 6.64, "unit": "%"},
      {"measurement": "inhibition at 10 µM", "setting": "MDA-MB-468", "result": 18.6, "unit": "%"},
      {"measurement": "inhibition at 10 µM", "setting": "T-47D", "result": 17.5, "unit": "%"},
      {"measurement": "IC50", "setting": "hCA XII", "result": "0.17 ± 0.006", "unit": "µM"}
    ]}
  ]
}
